Broadly, the inhibition is the relative decrease from the control value, in per cent.

The target of assay [1] is T1, human bradykinin 1 receptor (B1R) (Homo sapiens, UniProt P46663).
T1 construct: expressed in transfected cells
T1 sequence (P46663 1-353): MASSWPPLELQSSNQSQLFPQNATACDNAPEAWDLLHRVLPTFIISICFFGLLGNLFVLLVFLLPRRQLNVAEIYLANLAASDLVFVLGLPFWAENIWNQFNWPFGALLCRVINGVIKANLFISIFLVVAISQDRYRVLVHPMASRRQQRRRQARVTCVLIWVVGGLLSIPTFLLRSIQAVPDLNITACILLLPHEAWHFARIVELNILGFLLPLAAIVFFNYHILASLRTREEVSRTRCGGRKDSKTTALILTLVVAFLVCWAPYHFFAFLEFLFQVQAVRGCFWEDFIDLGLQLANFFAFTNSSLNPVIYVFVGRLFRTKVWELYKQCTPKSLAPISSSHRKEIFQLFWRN
Description: FLIPR Ca2+ assay, B1R antagonism, human. It counts as cell-based. The conditions noted are these: 10 μM test substance; CHO K1 cells with human B1R gene (hB1R cells); Lys-Des-Arg9-bradykinin at EC80; % inhibition compared with the maximum achievable inhibition; read-out: B1R antagonism, human [10 μM] % inhibition. On the procedure: The agonistic or antagonistic action of substances can be quantified on the bradykinin 1 receptor (B1R) of the human and rat species with ectopically expressing cell lines (CHO K1 cells) and with the aid of a Ca^2+-sensitive dyestuff (Fluo-4) in a fluorescent imaging plate reader (FLIPR). The figure in % activation is based on the Ca^2+ signal after addition of Lys-Des-Arg^9-bradykinin (0.5 nM) or Des-Arg^9-bradykinin (100 nM). Antagonists lead to a suppression of the Ca^2+ inflow after addition of the agonist. % inhibition compared with the maximum achievable inhibition is stated.
The agonistic or antagonistic action of substances can be determined on the bradykinin 1 receptor (B1R) of the human and rat species with the following assay. In accordance with this assay, the Ca^2+ inflow through the channel is quantified with the aid of a Ca^2+-sensitive dyestuff (type Fluo-4, Molecular Probes Europe BV, Leiden, Holland) in a fluorescent imaging plate reader (FLIPR, Molecular Devices, Sunnyvale, USA).
Chinese hamster ovary cells (CHO K1 cells) transfected stably with the human B1R gene (hB1R cells) or the B1R gene of the rat (rB1R cells) are used. For functional studies, these cells are plated out on black 96-well plates with a clear base (BD Biosciences, Heidelberg, Germany or Greiner, Frickenhausen, Germany) in a density of 20,000-35,000 cells/well. The cells are left overnight at 37° C. and 5% CO2 in culture medium (hB1R cells: Nutrient Mixture Ham's F12, Gibco Invitrogen GmbH, Karlsruhe, Germany or DMEM, Sigma-Aldrich, Taufkirchen, Germany; rB1R cells: D-MEM/F12, Gibco Invitrogen GmbH, Karlsruhe, Germany) with 10 vol. % FBS (foetal bovine serum, Gibco Invitrogen GmbH, Karlsruhe, Germany or PAN Biotech GmbH, Aidenbach, Germany).
On the following day, the cells are loaded for 60 min at 37° C. with 2.13 μM Fluo-4 (Molecular Probes Europe BV, Leiden, Holland) in HBSS buffer (Hank's buffered saline solution, Gibco Invitrogen GmbH, Karlsruhe, Germany) with 2.5 mM probenecid (Sigma-Aldrich, Taufkirchen, Germany) and 10 mM HEPES (Sigma-Aldrich, Taufkirchen, Germany). The plates are then washed 2× with HBSS buffer, and HBSS buffer which additionally contains 0.1% BSA (bovine serum albumin; Sigma-Aldrich, Taufkirchen, Germany), 5.6 mM glucose and 0.05% gelatine (Merck KGaA, Darmstadt, Germany) is added. After a further incubation of 20 minutes at room temperature, the plates are inserted into the FLIPR for the Ca^2+ measurement.
Alternatively, the plates are washed with buffer A (15 mM HEPES, 80 mM NaCl, 5 mM KCl, 1.2 mM CaCl2, 0.7 mM MgSO4, 2 g/l glucose, 2.5 mM probenecid), buffer A is added and the plates are loaded with 2.5 μM Fluo-4 and 0.025% Pluronic F127 (Sigma-Aldrich, Taufkirchen, Germany). Thereafter, the cells are washed 2× with buffer A and incubated for 30 minutes with buffer A, which additionally contains 0.05% BSA and 0.05% gelatine, at room temperature and thereafter inserted into the FLIPR for the Ca^2+ measurement.
The Ca^2+-dependent fluorescence is measured here before and after addition of substances (λex=488 nm, λem=540 nm). Quantification is by measurement of the highest fluorescence intensity (FC, fluorescence counts) over time.
The FLIPR protocol consists of 2 additions of substance. Test substances (10 μM) are first pipetted on to the cells and the Ca^2+ inflow is compared with the control (hB1R: Lys-Des-Arg^9-bradykinin >=50 nM; rB1R: Des-Arg^9-bradykinin 10 μM). This gives the figure in % activation based on the Ca^2+ signal after addition of Lys-Des-Arg^9-bradykinin (>=50 nM) or Des-Arg^9-bradykinin (10 μM).
After incubation for 10-20 minutes, Lys-Des-Arg^9-bradykinin (hB1R) or Des-Arg^9-bradykinin (rB1R) in the concentration of the EC80 is applied and the inflow of Ca^2+ is likewise determined. Antagonists lead to a suppression of the Ca^2+ inflow. % inhibition compared with the maximum achievable inhibition is calculated. […]

The target of assay [2] is T2, bradykinin 1 receptor (B1R) of the rat (Rattus norvegicus, UniProt P97583).
T2 construct: expressed in transfected cells
T2 sequence (P97583 1-337): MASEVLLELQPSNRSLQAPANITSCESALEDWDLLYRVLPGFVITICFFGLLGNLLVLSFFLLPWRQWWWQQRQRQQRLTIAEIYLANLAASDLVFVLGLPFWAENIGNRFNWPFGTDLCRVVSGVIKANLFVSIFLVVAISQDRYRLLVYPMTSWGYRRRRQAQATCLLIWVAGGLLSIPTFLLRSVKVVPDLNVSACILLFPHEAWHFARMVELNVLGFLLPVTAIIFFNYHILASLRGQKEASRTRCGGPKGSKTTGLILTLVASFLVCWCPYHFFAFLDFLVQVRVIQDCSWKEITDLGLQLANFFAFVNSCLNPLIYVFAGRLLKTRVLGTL
Description: FLIPR Ca2+ assay, B1R antagonism, rat. In kind it is cell-based. The conditions noted are these: CHO-K1, 10 μM test substance; CHO K1 cells with rat B1R gene (rB1R cells); Des-Arg9-bradykinin at EC80; % inhibition compared with the maximum achievable inhibition; read-out: B1R antagonism, rat [10 μM] % inhibition. Summed up: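 Antagonism is given as % of maximum achievable suppression of agonist-evoked Ca2+ influx, measured by Fluo-4 peak fluorescence in FLIPR. Stable hB1R or rB1R CHO K1 lines received 10 μM compound for 10-20 min before EC80 Lys-Des-Arg9-bradykinin (human) or Des-Arg9-bradykinin (rat).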

For `O=C(COCCN(C1CCc2ccccc21)S(=O)(=O)c1ccc(Cl)cc1Cl)N1CCC(OCCN2CCCC2)(c2cccnc2)CC1` (centres unmarked) [Example 7, 2,4-dichloro-N-(2,3-dihydro-1H-inden-1-yl)-N-(2-(2-oxo-2-(4-(pyridin-3-yl)-4-(2-(pyrrolidin-1-yl)ethoxy)piperidin-1-yl)ethoxy)ethyl)benzenesulfonamide], the figures for the inhibition at 10 µM in assay [1] and in assay [2] were 99% and 94%, respectively.
As to `O=C(CCCC1CCCCN1S(=O)(=O)c1ccccc1C(F)(F)F)N1CCC(OCCN2CCCC2)(c2cccnc2)CC1` (centres unmarked) [Example 8, 1-(4-(pyridin-3-yl)-4-(2-(pyrrolidin-1-yl)ethoxy)piperidin-1-yl)-4-(1-(2-(trifluoromethyl)phenylsulfonyl)piperidin-2-yl)butan-1-one], the inhibition at 10 µM in assay [1] was 70%; in assay [2], 60%.
Regarding `Cc1cccc(Cl)c1S(=O)(=O)N1CCCCC1CCCC(=O)N1CCC(OCCN2CCCC2)(c2cccnc2)CC1` (centres unmarked) [Example 9, 4-(1-(2-chloro-6-methylphenylsulfonyl)piperidin-2-yl)-1-(4-(pyridin-3-yl)-4-(2-(pyrrolidin-1-yl)ethoxy)piperidin-1-yl)butan-1-one], the inhibition at 10 µM is 100% in assay [1] and 102% in assay [2].
`O=C(CC1CCCCN1S(=O)(=O)c1cccc(C(F)(F)F)c1)N1CCC(OCCN2CCCCC2)(c2cccnc2)CC1` (centres unmarked) [Example 10, 1-(4-(2-(piperidin-1-yl)ethoxy)-4-(pyridin-3-yl)piperidin-1-yl)-2-(1-(3-(trifluoromethyl)phenylsulfonyl)piperidin-2-yl)ethanone]: the inhibition at 10 µM in assay [1] was determined as 104%; in assay [2], 44%.
With `O=C(CC(NS(=O)(=O)c1ccc2ccccc2c1)c1ccccc1)N1CCC(OCCN2CCCCC2)(c2cccnc2)CC1` (centres unmarked) [Example 11, N-(3-oxo-1-phenyl-3-(4-(2-(piperidin-1-yl)ethoxy)-4-(pyridin-3-yl)piperidin-1-yl)propyl)naphthalene-2-sulfonamide], the inhibition at 10 µM is 103% in assay [1] and 52% in assay [2].
The like results for `Cc1cc(S(=O)(=O)N2CCCCC2CCC(=O)N2CCC(OCCCN3CCCCC3)(c3cccnc3)CC2)c(C)cc1Cl` (centres unmarked) [Example 12, 3-(1-(4-chloro-2,5-dimethylphenylsulfonyl)piperidin-2-yl)-1-(4-(3-(piperidin-1-yl)propoxy)-4-(pyridin-3-yl)piperidin-1-yl)propan-1-one] were, in that order, 103% and 46%.
For `Cc1cc(S(=O)(=O)N2CCCCC2CCC(=O)N2CCC(OCCN3CCCCC3)(c3cccnc3)CC2)c(C)cc1Cl` (centres unmarked) [Example 13, 3-(1-(4-chloro-2,5-dimethylphenylsulfonyl)piperidin-2-yl)-1-(4-(2-(piperidin-1-yl)ethoxy)-4-(pyridin-3-yl)piperidin-1-yl)propan-1-one], the inhibition at 10 µM in assay [1] amounted to 101%; in assay [2] it was 50%.
Take `COc1cc(C)c(S(=O)(=O)N2CCCCC2COCC(=O)N2CCC(OCCN3CCCCC3)(c3cccnc3)CC2)c(C)c1` (centres unmarked) [Example 14, 2-((1-(4-methoxy-2,6-dimethylphenylsulfonyl)piperidin-2-yl)methoxy)-1-(4-(2-(piperidin-1-yl)ethoxy)-4-(pyridin-3-yl)piperidin-1-yl)ethanone]: the inhibition at 10 µM in assay [1] is 103%; in assay [2], 102%.
Consider `COc1cc(C)c(S(=O)(=O)N(C)CCOCC(=O)N2CCC(OCCN3CCCCC3)(c3cccnc3)CC2)c(C)c1` [Example 15, 4-methoxy-N,2,6-trimethyl-N-(2-(2-oxo-2-(4-(2-(piperidin-1-yl)ethoxy)-4-(pyridin-3-yl)piperidin-1-yl)ethoxy)ethyl)-benzenesulfonamide], for which the inhibition at 10 µM in assay [1] is 104%; in assay [2] it was 102%.
Consider `O=C(COCC1CCc2ccccc2N1S(=O)(=O)c1ccc(Cl)c(Cl)c1)N1CCC(OCCN2CCCCC2)(c2cccnc2)CC1` (centres unmarked) [Example 16, 2-((1-(3,4-dichlorophenylsulfonyl)-1,2,3,4-tetrahydroquinolin-2-yl)methoxy)-1-(4-(2-(piperidin-1-yl)ethoxy)-4-(pyridin-3-yl)piperidin-1-yl)ethanone], for which the inhibition at 10 µM came out at 103% in assay [1] and 87% in assay [2].
As to `COc1cc(C)c(S(=O)(=O)N2CCCCC2COCC(=O)N2CCC(OCCCN3CCCCC3)(c3cccnc3)CC2)c(C)c1` (centres unmarked) [Example 17, 2-((1-(4-methoxy-2,6-dimethylphenylsulfonyl)piperidin-2-yl)methoxy)-1-(4-(3-(piperidin-1-yl)propoxy)-4-(pyridin-3-yl)piperidin-1-yl)ethanone], the inhibition at 10 µM in assay [1] and in assay [2] was 102% throughout.
As for `COc1cc(C)c(S(=O)(=O)N(C)CCOCC(=O)N2CCC(OCCCN3CCCCC3)(c3cccnc3)CC2)c(C)c1` [Example 18, 4-methoxy-N,2,6-trimethyl-N-(2-(2-oxo-2-(4-(3-(piperidin-1-yl)propoxy)-4-(pyridin-3-yl)piperidin-1-yl)ethoxy)ethyl)benzenesulfonamide], the inhibition at 10 µM was found to be 102% in assay [1] and 103% in assay [2].
For the compound `O=C(COCC1CCc2ccccc2N1S(=O)(=O)c1ccc(Cl)c(Cl)c1)N1CCC(OCCCN2CCCCC2)(c2cccnc2)CC1` (centres unmarked) [Example 19, 2-((1-(3,4-dichlorophenylsulfonyl)-1,2,3,4-tetrahydroquinolin-2-yl)methoxy)-1-(4-(3-(piperidin-1-yl)propoxy)-4-(pyridin-3-yl)piperidin-1-yl)ethanone], the inhibition at 10 µM in assay [1] stood at 103%; in assay [2] it was 94%.

The values are drawn from US8318769B2, “Substituted sulfonamide compounds” (Gruenethal GmbH, priority 2008, dated 2012).
